Assay results taken from publication PMC13065080, “Discovery of a potent anti-Zika virus benzamide series targeting the viral protein NS4B” (PLOS Pathogens, 2026).
Read-outs that look alike come from different tables or passages of the source.

Assays:
ZIKV PLCal [1] = assay: CPE-based anti-ZIKV concentration-response assay (96-well); type: cell-based, Zika virus
ZIKV-RLuc = assay: microbe, parasite or virus in culture; type: cell-based, Zika virus; conditions: for Fold-change of EC50, Wt: ZIKV RLuc assay, reference
ZIKV PLCal [2] = assay: Virus yield (titer) reduction assay in Huh 7.5.1 cells; type: cell-based, Zika virus; conditions: 1 µM
ZIKV-RLuc NS4B V248G = type: cell-based, Zika virus
ZIKV-RLuc NS4B A245T = type: cell-based, Zika virus
ZIKV-RLuc NS4B V241L = type: cell-based, Zika virus
in vitro = conditions: African green monkey, CC50 Vero76
miniRFP-NS4B = target: T1, miniRFP-NS4B (Zika virus, UniProt A0A142I5B9); assay: Flow cytometric binding assay, miniRFP-NS4B expressing cells; type: cell-based; conditions: 293T cells, vs miniRFP alone, miniRFP-NS5 or NS4B-negative cells
T1 construct: 2K-miniRFPnano3-NS4B polypeptide-expressing plasmid (miniRFP-NS4B, hereafter); expressed in transfected cells; host or cells: HEK-293T
Experimental: HEK-293T cells plated in 12-well plates at 70–80% confluency were transfected with plasmid DNA (1 µg/well) using PEI (Polyethylenimine, 3 µg/well) following a protocol described elsewhere. At 24 hours post transfection, cells were harvested by trypsinization, fixed with 2% PFA, and permeabilized with […]. After blocking for one hour with Intercept Protein-Free blocking buffer (Li-Cor), cells were incubated with MWAC-4163 in PBS with 10% blocking buffer for 30 minutes. After extensive washing, cells were analyzed on an Accuri C6 flow cytometer (BD Sciences) using channel 1 for FAM (ex488 nm/em533) and channel 4 (ex640 nm/em675LP) for miniRFP.

ZIKV MR766 = assay: microbe, parasite or virus in culture; type: cell-based; conditions: CPE-protection
ZIKV DAK-41525-MA = assay: CPE-protection assay, ZIKV DAK-41525-MA; type: cell-based, Zika virus
DENV Type 4 H241 = assay: microbe, parasite or virus in culture; type: cell-based; conditions: CPE-protection; read-out: EC50 DENV Type 4 H241
ZIKV Ib H30656 = assay: microbe, parasite or virus in culture; type: cell-based; conditions: CPE-protection
JEV SA-14 = assay: CPE-protection assay, JEV; type: cell-based, Japanese encephalitis virus
YFV 17D = assay: microbe, parasite or virus in culture; type: cell-based; conditions: CPE-protection
CHIKV = assay: microbe, parasite or virus in culture; type: cell-based; conditions: Vero 76; read-out: EC50-CPE CHIKV
ZIKV PLCal [3] = assay: CPE-based phenotypic HTS assay (1536-well); type: cell-based, Zika virus; conditions: n = 10, uridine supplemented
Experimental: To begin, 600 cells at 2.5 μL/ well of Vero 76 cells in MEM-E supplemented with 10% FBS and 1X Antibiotic-Antimycotic (Gibco 15240-062) were dispensed to 1536 well plate (Aurora EBB0-40000A) and incubated at 37 °C in humidified incubators with 5% CO2 for 24 hours. After that, 30 nL of each compound or vehicle (75% DMSO) were transferred using pintool and further incubated for 2 hours. […] For the negative control wells (N = 24/plate), only virus dilution media was dispensed. Positive control wells contained virus and cells (N = 24/plate). After incubation at 37 °C in humidified incubators with 5% CO2 for 72 hours, plates were incubated for 10 minutes at room temperature, followed by dispensing 5 μL/well CellTiter Glo (Promega). Luminescent signal was detected using PHERAstar FSX (BMG Labtech).
In the primary screen, compounds were tested at a single concentration in singlicate at a final nominal concentration of 6.95 μM. Raw assay data was imported into UF Scripps’ corporate database and subsequently analyzed using Symyx software. Activity of each compound was calculated on a per-plate basis using the following equation: Percent Response of compound = 100*((Test Well-Median Data Wells)/ (Median High Control - Median Data Wells)). […]

WNV NY-99 = assay: CPE-protection assay, WNV; type: cell-based, West Nile virus
ZIKV FLR = assay: microbe, parasite or virus in culture; type: cell-based; conditions: CPE-protection
ZIKV PRVABC59 = assay: microbe, parasite or virus in culture; type: cell-based; conditions: CPE-protection
[4] = Vero 76, MOI 0.05, 3-day incubation, CellTiter-Glo, read-out: EC50-CPE ZIKV-PLCal
[5] = wild type ZIKV-RLuc, Vero 76, MOI 0.1, three days, read-out: EC50 ZIKV-RLuc
[6] = Zika virus, Fig 7, read-out: CPE EC50
[7] = Zika virus, Vero 76, 72 h, wild type ZIKV-RLuc, Vero 76, MOI 0.1, three days, read-out: EC50 ZIKV-RLuc
[8] = Zika virus, Fig 7, read-out: RLuc EC50

With `O=C(NC1CC2CCC1C2)c1ccc(C2CC2)cc1` (stereo not drawn) [MWAC-3990, N-((exo)-bicyclo[2.2.1]heptan-2-yl)-4-cyclopropylbenzamide] the CC50 (Vero76) was 22700 nM, the EC50 (ZIKV PLCal [1]; [4]) was 33100 ± 25500 nM and the EC50 (ZIKV-RLuc; [5]) was 3010 ± 1110 nM.
With `CC(C)c1ccc(C(=O)NC2CC3CCC2C3)cc1` (stereo not drawn) [MWAC-3991, N-((exo)-bicyclo[2.2.1]heptan-2-yl)-4-isopropylbenzamide] the CC50 (Vero76) was > 50000 nM, the EC50 (ZIKV PLCal [1]; [4]) was 2580 ± 1390 nM and the EC50 (ZIKV-RLuc; [5]) was 720 ± 220 nM.
For `CC(C)(O)c1ccc(C(=O)NC2CC3CCC2C3)cc1` (stereo not drawn) [MWAC-3995, N-((exo)-bicyclo[2.2.1]heptan-2-yl)-4-(2-hydroxypropan-2-yl)benzamide], the CC50 (Vero76) was > 50000 nM, the EC50 (ZIKV PLCal [1]; [4]) was 39000 nM and the EC50 (ZIKV-RLuc; [5]) was 13900 nM.
With `CCc1ccc(C(=O)NC2CC3CCC2C3)cc1` (stereo not drawn) [MWAC-3996, N-((exo)-bicyclo[2.2.1]heptan-2-yl)-4-ethylbenzamide] the CC50 (Vero76) was > 50000 nM, the EC50 (ZIKV PLCal [1]; [4]) was 27100 ± 16800 nM and the EC50 (ZIKV-RLuc; [5]) was 4880 ± 1360 nM.
With `O=C(NC1CC2CCC1C2)c1ccc(C(F)(F)F)cc1` (stereo not drawn) [MWAC-3997, N-((exo)-bicyclo[2.2.1]heptan-2-yl)-4-(trifluoromethyl)benzamide] the CC50 (Vero76) was > 50000 nM, the EC50 (ZIKV PLCal [1]; [4]) was 39000 ± 15300 nM and the EC50 (ZIKV-RLuc; [5]) was 4060 ± 1170 nM.
In the case of `COC(C)(C)c1ccc(C(=O)NC2CC3CCC2C3)cc1` (stereo not drawn) [MWAC-3998, N-((exo)-bicyclo[2.2.1]heptan-2-yl)-4-(2-methoxypropan-2-yl)benzamide], the CC50 (Vero76) is reported as > 50000 nM, the EC50 (ZIKV PLCal [1]; [4]) is reported as 2720 ± 1240 nM and the EC50 (ZIKV-RLuc; [5]) is reported as 760 ± 50 nM.
With `CC(C)(C)c1ccc(C(=O)NC2CCCCC2)cc1` [MWAC-4000, 4-(tert-butyl)-N-cyclohexylbenzamide] the “VYR: Virus Yield reduction (Log 10)” value (ZIKV PLCal [2]) was -1.67 ± 0.10 Log 10, the EC50 (ZIKV-RLuc NS4B V248G) was 6600 ± 530 nM and the “Fold-increase / fold-change of EC50, NS4B V248G vs wild type” value (ZIKV-RLuc NS4B V248G) was 204.7. The EC50 (ZIKV PLCal [1]; [6]) was 210 nM, the EC50 (ZIKV-RLuc NS4B A245T) was 680 ± 90 nM and the “Fold-increase / fold-change of EC50, NS4B A245T vs wild type” value (ZIKV-RLuc NS4B A245T) was 21.2. The EC50 (ZIKV-RLuc NS4B V241L) was 21300 ± 4870 nM, the “Fold-increase / fold-change of EC50, NS4B V241L vs wild type” value (ZIKV-RLuc NS4B V241L) was 659.3 and the CC50 (in vitro) was > 50000 nM. The “Fold-change of EC50, Wt” value (ZIKV-RLuc) was 1, the EC50 (ZIKV-RLuc; [7]) was 30 ± 3 nM and the EC50 (ZIKV-RLuc; [8]) was 90 nM.
In the case of `CC(C)(C)c1ccc(C(=O)NC2CCCCCC2)cc1` [MWAC-4001, 4-(tert-butyl)-N-cycloheptylbenzamide], the “VYR: Virus Yield reduction (Log 10)” value (ZIKV PLCal [2]) is reported as -2.68 ± 0.36 Log 10, the EC50 (ZIKV-RLuc NS4B V248G) is reported as 10100 ± 810 nM and the “Fold-increase / fold-change of EC50, NS4B V248G vs wild type” value (ZIKV-RLuc NS4B V248G) is reported as 238.2. For the same molecule, the EC50 (ZIKV PLCal [1]; [6]) was 90 nM, the EC50 (ZIKV-RLuc NS4B A245T) was 1070 ± 160 nM and the “Fold-increase / fold-change of EC50, NS4B A245T vs wild type” value (ZIKV-RLuc NS4B A245T) was 25.1. The EC50 (ZIKV-RLuc NS4B V241L) was 24000 nM, the “Fold-increase / fold-change of EC50, NS4B V241L vs wild type” value (ZIKV-RLuc NS4B V241L) was 564.2 and the CC50 (in vitro) was 12000 nM. The “Fold-change of EC50, Wt” value (ZIKV-RLuc) was 1, the EC50 (ZIKV-RLuc; [7]) was 40 ± 6 nM and the EC50 (ZIKV-RLuc; [8]) was 50 nM.
With `Cc1ccc(C(=O)NC2CC3CCC2C3)cc1` (stereo not drawn) [MWAC-4010, N-((exo)-bicyclo[2.2.1]heptan-2-yl)-4-methylbenzamide] the CC50 (Vero76) was > 50000 nM.
For `COc1ccc([C@@H](C)NC(=O)c2ccc(C(C)(C)C)cc2)cc1` [MWAC-4169, (R)-4-(tert-butyl)-N-(1-(4-methoxyphenyl)ethyl)benzamide], the “binding to cells expressing miniRFP-NS4B (FAM-positive frequency)” value (miniRFP-NS4B) was “significantly higher degree of binding”.
Work on `C#C[C@@]1(O)[C@H](O)[C@@H](CO)O[C@H]1n1ccc2c(N)ncnc21` [NITD-008, reference compound] yielded an EC50 (ZIKV MR766) of 1760 ± 200 nM, an EC50 (ZIKV DAK-41525-MA) of 890 ± 220 nM and an EC50 (DENV Type 4 H241) of 180 ± 120 nM. For the same molecule, the CC50 (Vero76) was 19000 ± 10300 nM, the EC50 (ZIKV Ib H30656) was 1430 ± 230 nM and the EC50 (ZIKV-RLuc NS4B V248G; ZIKV RLuc assay) was 200 nM. The “Fold-increase / fold-change of EC50, NS4B V248G vs wild type” value (ZIKV-RLuc NS4B V248G; ZIKV RLuc assay) was 0.93, the EC50 (JEV SA-14) was 1850 ± 1100 nM and the EC50 (YFV 17D) was 270 ± 120 nM. For the same molecule, the EC50 (ZIKV PLCal [1]; [4]) was 360 ± 270 nM, the EC50 (CHIKV) was > 50000 nM and the EC50 (ZIKV-RLuc NS4B A245T; ZIKV RLuc assay) was 280 nM. The “Fold-increase / fold-change of EC50, NS4B A245T vs wild type” value (ZIKV-RLuc NS4B A245T; ZIKV RLuc assay) was 1.29, the EC50 (ZIKV-RLuc NS4B V241L; ZIKV RLuc assay) was 760 nM and the “Fold-increase / fold-change of EC50, NS4B V241L vs wild type” value (ZIKV-RLuc NS4B V241L; ZIKV RLuc assay) was 3.44. The EC50 (ZIKV PLCal [3]) was 800 ± 37 nM, the EC50 (WNV NY-99) was 3000 ± 2500 nM and the EC50 (ZIKV FLR) was 1240 ± 90 nM. It also gave an EC50 (ZIKV PRVABC59) of 690 ± 110 nM and an EC50 (ZIKV-RLuc; [5]) of 310 ± 130 nM.
